The results in this text go back to paper PMC3444433, “The Drosophila nicotinic acetylcholine receptor subunits Dα5 and Dα7 form functional homomeric and heteromeric ion channels” (BMC Neuroscience, 2012).

Holding throughout (assay): two-electrode voltage clamp, Xenopus oocytes
Common to all, as to format: cell-based
Holding throughout (details): read-out: EC 50(μM or nM)*
On the technique in general: In two-electrode clamp one electrode senses voltage and the other passes current.

One test concerns the target T1, Dα5 + Dα6 nAChR (Drosophila melanogaster, UniProt Q8T7V5+Q9VL79).
T1 construct: gene nAChRalpha5; intact subunits co-injected as cRNA in Xenopus oocytes with C. elegans RIC-3; pairwise heteromer not proven (may be homomeric Dα5); stoichiometry unknown
T1 sequence (Q8T7V5 1-807): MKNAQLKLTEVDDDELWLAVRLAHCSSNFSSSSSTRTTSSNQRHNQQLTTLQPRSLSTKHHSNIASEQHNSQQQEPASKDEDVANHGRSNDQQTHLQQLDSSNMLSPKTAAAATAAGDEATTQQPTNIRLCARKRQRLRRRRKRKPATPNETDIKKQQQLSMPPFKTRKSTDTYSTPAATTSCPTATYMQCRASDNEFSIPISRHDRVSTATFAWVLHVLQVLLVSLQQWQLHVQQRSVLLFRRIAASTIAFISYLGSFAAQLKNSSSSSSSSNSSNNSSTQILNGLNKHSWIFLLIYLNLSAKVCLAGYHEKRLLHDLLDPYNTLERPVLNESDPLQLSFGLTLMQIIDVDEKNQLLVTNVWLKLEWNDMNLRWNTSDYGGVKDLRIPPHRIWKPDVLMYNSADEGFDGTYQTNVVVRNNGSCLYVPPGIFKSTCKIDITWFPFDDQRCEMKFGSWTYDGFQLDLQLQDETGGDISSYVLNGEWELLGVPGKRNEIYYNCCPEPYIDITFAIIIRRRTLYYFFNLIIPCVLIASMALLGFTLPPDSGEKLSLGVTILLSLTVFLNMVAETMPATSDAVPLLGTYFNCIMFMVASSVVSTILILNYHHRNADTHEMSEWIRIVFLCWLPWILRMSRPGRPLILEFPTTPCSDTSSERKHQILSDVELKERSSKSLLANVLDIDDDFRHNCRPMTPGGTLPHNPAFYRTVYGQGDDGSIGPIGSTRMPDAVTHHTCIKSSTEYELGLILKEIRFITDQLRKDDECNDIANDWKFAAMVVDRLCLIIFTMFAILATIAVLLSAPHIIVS
T1 sequence (Q9VL79 28-494): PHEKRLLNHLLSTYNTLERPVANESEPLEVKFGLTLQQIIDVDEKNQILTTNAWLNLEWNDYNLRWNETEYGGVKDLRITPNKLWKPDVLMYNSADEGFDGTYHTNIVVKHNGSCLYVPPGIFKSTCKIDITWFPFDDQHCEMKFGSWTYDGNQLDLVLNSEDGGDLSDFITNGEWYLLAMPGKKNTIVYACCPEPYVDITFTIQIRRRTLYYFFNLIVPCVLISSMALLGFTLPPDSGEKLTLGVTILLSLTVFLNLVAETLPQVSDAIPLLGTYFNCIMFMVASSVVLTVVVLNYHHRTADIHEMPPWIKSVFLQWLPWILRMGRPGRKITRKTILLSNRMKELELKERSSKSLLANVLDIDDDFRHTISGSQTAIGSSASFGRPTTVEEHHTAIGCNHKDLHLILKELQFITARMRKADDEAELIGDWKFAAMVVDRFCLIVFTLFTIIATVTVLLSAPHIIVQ
The source says:
two-electrode voltage clamp, Xenopus oocytes on Dα5 + Dα6 nAChR

Another test has as its target T2, homomeric Dα5 nAChR (Drosophila melanogaster, UniProt Q8T7V5).
T2 construct: gene nAChRalpha5; full-length, 807 residues, unusually large N-terminal domain; pGEMHE cRNA in Xenopus oocytes with chaperone C. elegans RIC-3; homopentamer
T2 sequence (Q8T7V5 1-807): T1 sequence (Q8T7V5 1-807)
The source says: two-electrode voltage clamp, Xenopus oocytes on homomeric Dα5 nAChR

A further test addresses T3, homomeric Dα7 nAChR (Drosophila melanogaster, UniProt Q9VWI9).
T3 construct: gene nAChRalpha7; intact subunit; pGEMHE cRNA in Xenopus oocytes with chaperone C. elegans RIC-3; homopentamer
T3 sequence (Q9VWI9 59-560): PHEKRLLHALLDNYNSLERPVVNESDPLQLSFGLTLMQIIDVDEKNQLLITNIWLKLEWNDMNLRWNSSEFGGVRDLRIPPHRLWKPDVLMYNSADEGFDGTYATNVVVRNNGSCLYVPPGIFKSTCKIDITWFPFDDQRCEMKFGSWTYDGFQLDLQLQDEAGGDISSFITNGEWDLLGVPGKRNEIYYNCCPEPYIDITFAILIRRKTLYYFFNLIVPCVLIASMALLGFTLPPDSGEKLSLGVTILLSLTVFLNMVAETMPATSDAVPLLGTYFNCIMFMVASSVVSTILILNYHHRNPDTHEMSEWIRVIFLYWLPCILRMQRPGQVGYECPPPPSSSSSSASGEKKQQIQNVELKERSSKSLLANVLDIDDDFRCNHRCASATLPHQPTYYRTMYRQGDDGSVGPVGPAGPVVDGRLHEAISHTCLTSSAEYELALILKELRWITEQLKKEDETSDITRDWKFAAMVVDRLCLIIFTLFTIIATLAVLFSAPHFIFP
The source says:
two-electrode voltage clamp, Xenopus oocytes on homomeric Dα7 nAChR

Another test concerns the target T4, Dα5 + Dα7 nAChR (Drosophila melanogaster, UniProt Q8T7V5+Q9VWI9).
T4 construct: gene nAChRalpha5; intact subunits co-injected as cRNA in Xenopus oocytes with C. elegans RIC-3; pairwise heteromer not proven (may be homomers); stoichiometry unknown
T4 sequence (Q8T7V5 1-807): T1 sequence (Q8T7V5 1-807)
T4 sequence (Q9VWI9 59-560): T3 sequence (Q9VWI9 59-560)
The source says: two-electrode voltage clamp, Xenopus oocytes on Dα5 + Dα7 nAChR

Turning to `CC(=O)OCC[N+](C)(C)C` [acetylcholine], the EC50 on Dα5 + Dα6 nAChR was 8.6 ± 2.4 µM; at homomeric Dα5 nAChR, 8.8 ± 2.5 µM; on homomeric Dα7 nAChR, 6.7 ± 1.7 µM; on Dα5 + Dα7 nAChR it was 1.6 ± 0.3 µM.
